The values below come from US11331271B2, “Buccal, sublingual and intranasal delivery of fospropofol” (The Johns Hopkins University, priority 2016, dated 2022).

In one data set the test system is rats. The data set is described as follows: Sedative studies in rats (0-4 sedation score). Type of data set: in vivo, rat. On the procedure: The relative potency of fospropofol given via different administration routes was investigated in rats, using sedation as an end point. Intravenous fospropofol doses of 5-40 mg/kg were chosen based on previous studies (Schywalsky, et al., 2003). Based on expected lower oral bioavailability, doses of 100-400 mg/kg were chosen for the PO and ID studies. Following administration of fospropofol, two experimental observers blinded to the treatment, graded the behavior of the rats (n=2-3 per experimental group) every 5 min for a total of 120 min after administration. […] Scores were averaged across treatment groups per time point.

Data set [1] deals with rat chronic constrictive injury model of neuropathic pain. The data set is described as follows: Neuropathic pain studies in rats (thermal hyperalgesia, withdrawal latency). In kind it is in vivo. The note with it: for alleviation of thermal hyperalgesia: 45-60 min post-dose; for time course of analgesic effect: tested 1, 2 and 4 h after dosing. On the procedure:
This study was performed as previously described (Vornov, et al., 2013). In brief, male Sprague-Dawley rats (200-250 g) were anesthetized with halothane. The common sciatic nerve on one hind limb was exposed by separating the biceps femoris from the gluteus superficialis. The nerve was subsequently isolated from the surrounding tissue and four ligatures (4.0 chromic gut) were tied loosely around it with about 1-mm spacing. On the other hind limb of the rat, the nerve was similarly isolated but no ligatures were placed, (sham surgery). Thermal pain sensitivity was evaluated using a plantar test apparatus according to previous methods (Hargreaves, et al., 1988). In brief, this involved applying a constant infrared stimulus to the plantar surface of the hind paw using a Basile Plantar apparatus (Ugo Basile, Vaarese, Italy). Withdrawal latency was measured as the time taken for the rat to withdraw its paw from the heat source to the nearest 0.1 s. The “difference score” was calculated by subtracting the average latency of the non-ligated versus ligated side. Animals were habituated to the test chambers (clear plastic compartment maintained in a quiet room) for several hours over 3-4 days, prior to any measurement. Baseline hyperalgesia was recorded 10-12 days post-surgery after the habituation. On test day, each animal received either fospropofol (50, 75 or 100 mg/kg) or vehicle (distilled water) via oral gavage in a volume of 2 mL/kg in a randomized and blinded fashion. Withdrawal latency measurements were then recorded five times for both the operated and sham hind paws of each rat starting from 45 to 60 min post dose. The final latency measurement represents a mean of the last four out of a total of five responses, each being taken at least 5 min apart on the same paw. The difference in response latency for each rat for each leg was calculated and used to determine the mean latency difference response time for each group.

The conditions of data set [2]: IV lipid emulsion, humans; cited from earlier work.
The conditions of data set [3]: rat, oral propofol; cited from earlier work.
A further data set relates to Caco-2 cell monolayers. The note with it: cited from earlier work.
The test system of another data set is patients. The note with it: anesthetic induction doses; cited from earlier work.

“Also recorded” adds a separate entry of the source.

For the compound `CC(C)c1cccc(C(C)C)c1OCOP(=O)(O)O` [fospropofol], in the data set with rats (ID), the “dose inducing full sedation (average score 3.5 or higher)” value (“dose inducing full sedation” for short) is 50 mg/kg and the “onset of sedation after administration” value is listed as at most 5 min. For the same compound, the “dose inducing full sedation” value in the data set with rats (IV) came to 40 mg/kg. In the data set on rats (IV 10-40 mg/kg), the “onset of sedative effects” value was at most 1 min and the “sedative effects abated after infusion” value is at most 30 min. Besides, in the data set on rats (PO), the “dose inducing full sedation” value lay within 300 to 400 mg/kg and the “onset of sedated behavior after dosing” value fell in the range of 5 to 10 min. In the data set with rats (PO 100-200 mg/kg), the degree of sedation entry is on record as “mild to moderate sedation” and the duration of sedation fell in the range of 1 to 2 h. In addition, the “duration of loss of consciousness” value in the data set with rats (PO 300 and 400 mg/kg) is given as at most 1 h. Also, in data set [1] (75 mg/kg PO), the “alleviation of thermal hyperalgesia” value is given as “active in alleviating thermal hyperalgesia; also recorded: effective in reducing hyperalgesia” and the “time course of analgesic effect” value is recorded as “losing activity by 2 h”. In addition, the “time course of analgesic effect” value in data set [1] (75 mg/kg PO, listed as Fospropofol) is “effective only when tested at 1 h”. In addition, the “alleviation of thermal hyperalgesia” value in data set [1] (100 mg/kg PO) is on record as “active in alleviating thermal hyperalgesia; also recorded: effective in reducing hyperalgesia”. In addition, the “absolute latency of the ligated side vs vehicle” value in data set [1] (1 hour after oral fospropofol) is “dose dependent increase”. In addition, in data set [1] (PO fospropofol), the “withdrawal latency on sham (non-ligated) side vs vehicle” value was “no change in latencies; also recorded: did not change”.

As for `CC(C)c1cccc(C(C)C)c1O` [propofol, 2,6-diisopropylphenol], the “extraction by the liver” value in data set [2] is recorded as 80%. The bioavailability of propofol in data set [3] is listed as 10%. Besides, in the data set with Caco-2 cell monolayers, the permeability result was “highly permeable”. Moreover, the “patients with respiratory consequences (reduction in tidal volume, apnea)” value in the data set with patients is given as “up to 83%”.
